In patent publication US20260347364A1, “PYRAZOLO[4,3-F]QUINAZOLINE DERIVATIVES AS MODULATORS OF G12D MUTANT KRAS USEFUL FOR THE TREATMENT OF CANCER” (JAZZ PHARMACEUTICALS IRELAND LTD., priority 2023, published 2026):

What was measured:
KRAS G12D = biological target: T1, KRAS G12D (Homo sapiens, UniProt P01116, G12D); experiment: HTRF nucleotide exchange assay, KRAS G12D; type: biochemical; settings: HTRF nucleotide exchange assay (NEA), class symbols
T1 construct: aa1-188 KRAS WT, HRAS WT, NRAS WT, or KRAS containing the G12D

KRAS G12V = biological target: T2, KRAS G12V (Homo sapiens, UniProt P01116, G12V); experiment: HTRF nucleotide exchange assay, KRAS G12V; type: biochemical; settings: HTRF nucleotide exchange assay (NEA), class symbols
T2 construct: 4 nM KRAS; aa1-188 containing the G12V, G12C, G12A or G12S amino acid substitution
Experimental: (§1) HTRF Nucleotide Exchange Assay Method
The capacity of compounds to bind KRAS G12D, other KRAS mutants and wildtype RAS isoforms was quantified using a HTRF nucleotide exchange assay. Recombinant human RAS protein (2 nM; aa1-188 KRAS WT, HRAS WT, NRAS WT, or KRAS containing the G12D, G13D or Q61H amino acid substitutions, or 4 nM KRAS; aa1-188 containing the G12V, G12C, G12A or G12S amino acid substitution, an N-terminal 6× His-tag and leader sequence), and 2 nM Europium-labeled anti-6× His antibody were mixed in assay buffer (10 mM HEPES pH 7.3, 150 mM NaCl, 5 mM MgCl2, 0.05% BSA, 0.0025% NP-40 and 100 mM KF) with various concentrations of compound in a 384-well plate and a volume of 5 μL. After a 60-minute incubation at room temperature, 5 μl of 200 nM EDA-GTP-DY647P1 (diluted in assay buffer) was added to the plate. Following 30-minute incubation at room temperature, time-resolved fluorescence was measured on a PerkinElmer Envision plate reader. DMSO (0.3%) and unlabeled GDP (1 μM) or equivalent tool compound were used to generate the Max and Min assay signals, respectively. Data was analysed using a four-parameter logistic model to calculate IC50 values, with at least two independent replicates were performed for each compound. The results are presented as IC50s in Table 29 where “A” corresponds to an IC50 ≤10 nM, “B” to an IC50 >10 nM up to 100 nM, “C” is >100 nM up to 10 μM, “D” represents <49% inhibition at 10 μM and ND=not determined: […]

KRAS G12A = biological target: T3, KRAS G12A (Homo sapiens, UniProt P01116, G12A); experiment: HTRF nucleotide exchange assay, KRAS G12A; type: biochemical; settings: HTRF nucleotide exchange assay (NEA), class symbols
T3 construct: 4 nM KRAS; aa1-188 containing the G12V, G12C, G12A or G12S amino acid substitution
Experimental: as §1
(§2) The capacity of compounds to bind KRAS G12D, other KRAS mutants and wildtype RAS isoforms was quantified using a HTRF nucleotide exchange assay. Recombinant human RAS protein (2 nM; aa1-188 KRAS WT, HRAS WT, NRAS WT, or KRAS containing the G12D, G13D or Q61H amino acid substitutions, or 4 nM KRAS; aa1-188 containing the G12V, G12C, G12A or G12S amino acid substitution, an N-terminal 6× His-tag and leader sequence), and 2 nM Europium-labeled anti-6× His antibody were mixed in assay buffer (10 mM HEPES pH 7.3, 150 mM NaCl, 5 mM MgCl2, 0.05% BSA, 0.0025% NP-40 and 100 mM KF) with various concentrations of compound in a 384-well plate and a volume of 5 μL. After a 60-minute incubation at room temperature, 5 μl of 200 nM EDA-GTP-DY647P1 (diluted in assay buffer) was added to the plate. Following 30-minute incubation at room temperature, time-resolved fluorescence was measured on a PerkinElmer Envision plate reader. DMSO (0.3%) and unlabeled GDP (1 μM) or equivalent tool compound were used to generate the Max and Min assay signals, respectively. Data was analysed using a four-parameter logistic model to calculate IC50 values, with at least two independent replicates were performed for each compound. […]

KRAS G12S = biological target: T4, KRAS G12S (Homo sapiens, UniProt P01116, G12S); experiment: HTRF nucleotide exchange assay, KRAS G12S; type: biochemical; settings: HTRF nucleotide exchange assay (NEA), class symbols
T4 construct: 4 nM KRAS; aa1-188 containing the G12V, G12C, G12A or G12S amino acid substitution
Experimental: as §1, §2

KRAS WT = biological target: T5, KRAS WT (Homo sapiens, UniProt P01116); experiment: HTRF nucleotide exchange assay, KRAS WT; type: biochemical; settings: HTRF nucleotide exchange assay (NEA), class symbols
T5 construct: aa1-188 KRAS WT

[1] = Metabolic stability in human liver hepatocytes (substrate depletion, intrinsic clearance); type: in vitro ADME; settings: 37° C., Williams E Media, LC-MS/MS depletion
Text: Determining the in vitro metabolic stability of a new chemical entity (NCE) is a very useful tool within drug discovery. A metabolic stability study will determine the in vitro intrinsic clearance (CLint) of a compound. The CLint value represents a measure of enzyme activity toward an NCE and is independent of other physiological factors such as blood flow. Determination of CLint within drug discovery helps to identify metabolic liabilities within a compound series, and ultimately assist in the identification of compounds with improved metabolic stability. The CLint value determined in vitro can be used to predict in vivo clearance (using species specific scaling factors) in pre-clinical species and ultimately in human. The liver is the primary organ involved in drug metabolism, of which there are two pathways-Phase I and Phase II. Phase I metabolism is primarily oxidative with the majority of these oxidations catalysed by cytochrome P450 enzymes (CYPs) which are located in the smooth endoplasmic reticulum (ER) in the liver. Phase II metabolism is catalysed by various conjugative enzymes which are located mainly in the ER and the cytosol. The in vitro systems used to study drug metabolism are mainly subcellular fractions such as liver microsomes or whole cells (hepatocytes) isolated from the liver. Hepatocytes, being whole cells, contain both Phase I and Phase II metabolizing enzymes and produce their own cofactors. This assay determines the metabolic stability of test compounds in human liver hepatocytes using the substrate depletion approach. The lower limit of the assay is a T1/2 >462 min and a CLint […]. Therefore the upper limit of the assay is 277 μL/min/106 cells. Any CLint value higher than this should be given an out of range value. Hepatocytes were plated in Williams E Media with added L-glutamine, compounds were added as 1 mM DMSO solution and incubated at 37° C. Compound depletion was measured by LC-MS/MS at multiple time points following quenching with cold acetonitrile. CLint was calculated from the following equation:
CLint(μl/min/106cells)=(In(2)/T1/2)*1000/cell density(10^6cells/mL)

T5 sequence (P01116 1-188 isoform P01116-2): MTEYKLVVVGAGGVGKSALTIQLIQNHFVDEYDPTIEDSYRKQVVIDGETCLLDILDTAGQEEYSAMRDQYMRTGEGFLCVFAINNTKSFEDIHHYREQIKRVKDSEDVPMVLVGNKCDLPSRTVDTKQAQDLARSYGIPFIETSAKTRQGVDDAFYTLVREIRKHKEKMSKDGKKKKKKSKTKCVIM
T4 sequence (P01116 1-188 isoform P01116-2 G12S): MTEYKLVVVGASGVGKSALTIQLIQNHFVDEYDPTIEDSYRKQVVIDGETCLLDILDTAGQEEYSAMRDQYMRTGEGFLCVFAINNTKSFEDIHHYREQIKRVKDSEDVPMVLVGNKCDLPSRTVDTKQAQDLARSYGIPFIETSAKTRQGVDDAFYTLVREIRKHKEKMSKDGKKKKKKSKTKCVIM
T1 sequence (P01116 1-188 isoform P01116-2 G12D): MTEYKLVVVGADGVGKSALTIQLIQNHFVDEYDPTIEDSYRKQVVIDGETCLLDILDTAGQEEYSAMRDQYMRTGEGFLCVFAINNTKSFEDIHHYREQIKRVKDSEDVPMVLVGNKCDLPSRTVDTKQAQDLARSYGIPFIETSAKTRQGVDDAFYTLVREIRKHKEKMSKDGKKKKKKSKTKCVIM
T3 sequence (P01116 1-188 isoform P01116-2 G12A): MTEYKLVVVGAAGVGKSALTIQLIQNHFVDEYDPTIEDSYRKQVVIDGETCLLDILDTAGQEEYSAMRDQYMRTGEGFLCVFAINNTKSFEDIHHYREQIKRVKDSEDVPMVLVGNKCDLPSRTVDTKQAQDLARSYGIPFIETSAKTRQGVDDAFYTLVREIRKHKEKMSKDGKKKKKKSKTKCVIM
T2 sequence (P01116 1-188 isoform P01116-2 G12V): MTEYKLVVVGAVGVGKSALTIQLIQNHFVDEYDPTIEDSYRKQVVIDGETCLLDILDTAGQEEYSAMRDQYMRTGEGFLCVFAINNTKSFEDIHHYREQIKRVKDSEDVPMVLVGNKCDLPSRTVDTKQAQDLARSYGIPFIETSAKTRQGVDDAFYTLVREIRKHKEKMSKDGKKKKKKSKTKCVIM

IC50 (KRAS G12D): ≤ 10 nM
IC50 (KRAS G12V): 10 to 100 nM
IC50 (KRAS G12A): ≤ 10 nM
IC50 (KRAS G12S): 10 to 100 nM
IC50 (KRAS WT): ≤ 10 nM
hepatocyte CLint [1]: 73.3 µL/min/1e6 cells
SMILES: CCc1c(F)ccc2cc(O)cc(-c3cc4nc(OC[C@@]56CCCN5C[C@H](F)C6)nc(N5CCCOCC5)c4c4cn(C)nc34)c12 [Example 1, 5-ethyl-6-fluoro-4-[2-methyl-9-(1,4-oxazepan-4-yl)-7-[[(2R,8S)-2-fluoro-1,2,3,5,6,7-hexahydropyrrolizin-8-yl]methoxy]pyrazolo[4,3-f]quinazolin-4-yl]naphthalen-2-ol]
